Experiment: Micelle formation and micelle particle size in aqueous solution
Type: physicochemical
Settings: for particle size of the micelles: micelles formed in aqueous solution
Text: In one example, the compounds of the invention form micelles when added to an aqueous solution. The particle sizes of these micelles can be determined using art recognized methods, such as light scattering techniques. In one embodiment, the particle size is between about 300 nm and about 1 nm, preferably between about 200 nm and about 1 nm, more preferably between about 100 nm and about 1 nm. Smaller particle sizes are generally preferred.
Smaller micelle size is generally preferred.

micelle formation in aqueous solution | particle size of the micelles | Substance
forms micelles | about 120 nm | polyoxyethanyl-ubiquinol-sebacate [PQS-600]
forms micelles | about 80 nm | polyoxyethanyl-ubiquinol-sebacate [PQS-1000]

From US20070208088A1, “PQS: A NEW HYDROTROPE FOR SOLUBILIZING LIPOPHILIC COMPOUNDS IN WATER” (ZYMES, LLC, priority 2006, published 2007)
